Consider 19 compounds from patent US20250136581A1, “SUBSTITUTED TRIAZOLE DERIVATIVE, PREPARATION METHOD THEREFOR, PHARMACEUTICAL COMPOSITION THEREOF, AND USE THEREOF” (SHANGHAI SIMR BIOTECHNOLOGY CO., LTD., priority 2021, published 2025).

Assay [1] addresses α5-GABAA receptor (α5, β3, γ2 subunits) (Homo sapiens (Human), UniProt P18507+P31644). The experiment in a line: Whole cell patch clamp, inverse agonist efficacy in HEK293 cells expressing α5-GABAA receptor. Format: cell-based. Particulars: HEK293, drug 100 nM, GABA 0.05 μM, −60 mV; read-out: Compound inverse agonist efficacy %. From the text: The inventors used electrophysiological methods to determine the inverse agonist efficacy of the drugs to be tested on the α5-GABAA receptor. The detailed methods are as follows:
Different subunits of the GABAA receptor were co-expressed in the HEK293 cell line to construct a fully functional GABAA receptor. The α, β, and γ subunits are essential to form a complete functional GABAA receptor. In this example, the present disclosure had established the following cell model: α5 subunit (see GenBank Accession No.: NM_000810.3 for protein sequences), β3 subunit (see GenBank Accession No.: NM_000814.5 for protein sequences), and γ2 subunit (see GenBank Accession No.: NM_000816.3 for protein sequences) were co-expressed in the HEK293 cell line, followed by screening the monoclonal stably transfected cell line. This cell line expressed a fully functional α5-GABAA receptor.
The monoclonal stably transfected HEK293 cell line expressing α5-GABAA receptor were cultured in 10 cm culture dishes and passaged when the cells grew to 80% to 90% confluent. During passaging, the culture medium was aspirated first, then 3 mL of DPBS phosphate buffer salt (Gibco™) was added to the culture dishes, and the culture dishes were shaken slightly, and DPBS was aspirated. 1 mL of trypsin (TrypLE Express, Gibco™) was added thereto, and the cells were digested at 37° C. for 1-2 minutes. Then 3 mL of complete medium (DMEM+10% FBS (Gibco™)) was added and the cells at the bottom of the culture dishes were dispersed. The cell suspension was transferred to a 15 mL centrifugal tube (Corning) and then centrifuged at 200 g for 3 minutes. The supernatant was discarded, 4 mL of complete medium was added, and the cells were gently blown and resuspended for use. If cell passaging was performed, the cell suspension was diluted at a ratio of 1:5 or 1:10. If cells for electrophysiological detection were prepared, the cell suspension was diluted in a ratio of 1:12, then added into a 24-well dish (Corning™) in which glass slides were placed and pretreated with Poly-D-Lysine, and the experiment was carried out after the cells adhered to the wall. The cells used for electrophysiology was cultured no more than 48 hours.
Drug concentration setting: The final drug concentration used in drug screening was 100 nM, and the GABA concentration was 0.05 μM. The whole cell patch clamp technique was used in electrophysiological assays, which could refer to the literature (I. Lecker, Y. Yin, D. S. Wang and B. A. Orser, British Journal of Anaesthesia, 2013, 110 (Si), i73-i81). The compositions of the extracellular solution for electrophysiology assay were as follows: 150 mM NaCl, 5 mM KCl, 2.5 mM CaCl2, 1 mM MgCl2, 10 mM HEPES, and 10 mM glucose (pH 7.4); the formulation of the electrode internal fluid for electrophysiology use was as follows: 140 mM CsCl, 11 mM EGTA, 10 mM HEPES, 2 mM CaCl2, 1 mM MgCl2, 4 mM MgATP, and 2 mM TEA (pH 7.3). The signal acquisition used an EPC-10 amplifier and the PatchMaster software (HEKA) or Axon700B amplifier and Clampex software (AXON). The recording electrode was pulled from borosilicate glass, and the electrode resistance was 4 to 6 MQ. The ALA-VC-8PG™ system was used for drug application. Single cell that grew independently was selected for recording. During recording, the cell membrane potential was clamped at −60 mV. During experiment, an extracellular solution was applied outside the cells for about 20 seconds. When the baseline reached to a stable state, the extracellular solution was switched to the GABA solution to induce an inward current. After about 20 to 40 seconds until the current was stable, the solution was switched to a corresponding drug solution to detect the effect of the drug. At last, the solution was switched to the extracellular solution, and the experiment was terminated when the baseline returned to the level before drug application. […]
For orientation: The patch-clamp technique gives a direct electrical read-out from membranes.

Assay [2] deals with human α5β3γ2 receptors (α5-GABAA receptor) (Homo sapiens (Human), UniProt P18507+P31644). The experiment in a line: 3H-flunitrazepam competition binding, human α5β3γ2 GABAA receptor. To be noted: HEK293 cell membranes, 1 nM 3H-flunitrazepam. The method in brief: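 Radioligand displacement of 1 nM 3H-flunitrazepam from membranes of HEK293 lines stably expressing the human subtypes, 1 h at room temperature, compound in 8-point 4-fold series. Bound label on GF/C filters counted by scintillation; Ki derived from fitted IC50, with flumazenil as low control.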

Like-named read-outs stand apart in the source and are kept apart here.

For the compound `Cc1nnn(-c2ccc(C(F)F)cc2)c1COc1ccc(N2CCN(Cc3ccccn3)C(=O)C2)nn1` [Example 60, 4-(6-((1-(4-(Difluoromethyl)phenyl)-4-methyl-1H-1,2,3-triazol-5-yl)methoxy)pyridazin-3-yl)-1-(pyridin-2-ylmethyl)piperazin-2-one], the inhibition at 0.1 µM in assay [1] was found to be 47.2%. In addition, the inhibition constant (Ki) in assay [2] (read-out: α5-GABAAR Ki) was 1.33 nM.
Taken in the same sequence, the figures for `Cc1nnn(-c2ccc(C(F)F)cc2F)c1COc1ccc(N2CCN3CCNC(=O)[C@@H]3C2)nn1` [Example 168, (S)-8-(6-((1-(4-(Difluoromethyl)-2-fluorophenyl)-4-methyl-1H-1,2,3-triazol-5-yl)methoxy)pyridazin-3-yl)hexahydro-2H-pyrazino[1,2-a]pyrazin-1(6H)-one] were 42.4% and 2.84 nM.
As for `Cc1nnn(-c2ccc(C(F)F)cc2)c1COc1ccc(N2CC(=O)N3CCN(Cc4ncccn4)CC3C2)nn1` (centres unmarked) [Example 92, 2-(6-((1-(4-(Difluoromethyl)phenyl)-4-methyl-1H-1,2,3-triazol-5-yl)methoxy)pyridazin-3-yl)-8-(pyrimidin-2-ylmethyl)octahydro-4H-pyrazino[1,2-a]pyrazin-4-one], the inhibition at 0.1 µM in assay [1] was 49.7%. Further, in assay [2] (read-out: α5-GABAAR Ki), the inhibition constant Ki was 1.1 nM.
Taken in the same sequence, the figures for `Cc1nnn(-c2ccc(C(F)F)cc2)c1COc1ccc(N2CCN3CCN(C)C(=O)[C@@H]3C2)nn1` [Example 107, (S)-8-(6-((1-(4-(Difluoromethyl)phenyl)-4-methyl-1H-1,2,3-triazol-5-yl)methoxy)pyridazin-3-yl)-2-methyloctahydro-1H-pyrazino[1,2-a]pyrazin-1-one] were 49.2% and 15.6 nM.
In the case of `Cc1nnn(-c2ccc(F)cn2)c1COc1ccc(N2CCNC(=O)C2)nn1` [Example 73, 4-(6-((1-(5-Fluoropyridin-2-yl)-4-methyl-1H-1,2,3-triazol-5-yl)methoxy)pyridazin-3-yl)piperazin-2-one], in assay [1], the inhibition at 0.1 µM came out at 41.3%. Moreover, in assay [2] (read-out: α5-GABAAR Ki), the Ki was found to be 4.93 nM.
As to `Cc1nnn(-c2ccc(C(F)F)cc2)c1COc1ccc(N2CC(CO)OC2=O)nn1` (centres unmarked) [Example 66, 3-(6-((1-(4-(Difluoromethyl)phenyl)-4-methyl-1H-1,2,3-triazol-5-yl)methoxy)pyridazin-3-yl)-5-(hydroxymethyl)oxazolidin-2-one], the inhibition at 0.1 µM in assay [1] was 52.7%. Further, the Ki in assay [2] (read-out: α5-GABAAR Ki) was 4.07 nM.
Taken in the same sequence, the figures for `Cc1nnn(-c2ccc(C(F)F)cc2)c1COc1ccc(N2CC(C(=O)Nc3ccn(C)n3)C2)nn1` [Example 101, 1-(6-((1-(4-(Difluoromethyl)phenyl)-4-methyl-1H-1,2,3-triazol-5-yl)methoxy)pyridazin-3-yl)-N-(1-methyl-1H-pyrazol-3-yl)azetidine-3-carboxamide] were 43.9% and 1.15 nM.
Taken in the same sequence, the figures for `Cc1nnn(-c2ccc(C(F)F)cc2)c1COc1ccc(N2CCN(C3CCOC3)C(=O)C2)nn1` (centres unmarked) [Example 58, 4-(6-((1-(4-(Difluoromethyl)phenyl)-4-methyl-1H-1,2,3-triazol-5-yl)methoxy)pyridazin-3-yl)-1-(tetrahydrofuran-3-yl)piperazin-2-one] were 46% and 1.85 nM.
Consider `Cc1nnn(-c2ccc(C(F)F)cc2)c1COc1ccc(N2CC(=O)N[C@H](C(=O)O)C2)nn1` [Example 36, (S)-4-(6-((1-(4-(Difluoromethyl)phenyl)-4-methyl-1H-1,2,3-triazol-5-yl)methoxy)pyridazin-3-yl)-6-oxopiperazine-2-carboxylic acid], for which the inhibition at 0.1 µM in assay [1] turned out to be 49%. The inhibition constant (Ki) in assay [2] (read-out: α5-GABAAR Ki) worked out at 13.6 nM.
Taken in the same sequence, the figures for `Cc1nnn(-c2ccc(C(F)F)cc2)c1COc1ccc(N2CCN[C@@H](C(=O)O)C2)nn1` [Example 28, (R)-4-(6-((1-(4-(Difluoromethyl)phenyl)-4-methyl-1H-1,2,3-triazol-5-yl)methoxy)pyridazin-3-yl)piperazine-2-carboxylic acid] were 47.7% and 4.31 nM.
Regarding `Cc1nnn(-c2ccc(Cl)cc2)c1COc1ccc(N2CCN3CCNC(=O)[C@@H]3C2)nn1` [Example 163, (S)-8-(6-((1-(4-Chlorophenyl)-4-methyl-1H-1,2,3-triazol-5-yl)methoxy)pyridazin-3-yl)hexahydro-2H-pyrazino[1,2-a]pyrazin-1(6H)-one], in assay [1], the inhibition at 0.1 µM worked out at 43.6%. The Ki in assay [2] (read-out: α5-GABAAR Ki) turned out to be 26.4 nM.
Take `Cc1nnn(-c2ccc(C(F)F)cc2)c1COc1ccc(N2CCN3[C@@H]4CCC[C@@H]4NC(=O)[C@@H]3C2)nn1` [Example 197, (4aS,6aS,9aR)-3-(6-((1-(4-(Difluoromethyl)phenyl)-4-methyl-1H-1,2,3-triazol-5-yl)methoxy)pyridazin-3-yl)decahydrocyclopenta[e]pyrazino[1,2-a]pyrazin-5(1H)-one]: the inhibition at 0.1 µM in assay [1] turned out to be 52.4%. The same compound had a Ki in assay [2] (α5-GABAAR Ki) of 4.95 nM.
For the compound `Cc1nnn(-c2ccc(C(F)F)cc2)c1COc1ccc(N2CCC2=O)nn1` [Example 18, 1-(6-((1-(4-(Difluoromethyl)phenyl)-4-methyl-1H-1,2,3-triazol-5-yl)methoxy)pyridazin-3-yl)azetidin-2-one], the inhibition at 0.1 µM in assay [1] came out at 51.5%. For the same compound, the Ki in assay [2] (read-out: α5-GABAAR Ki) is 2.13 nM.
Taken in the same sequence, the figures for `Cc1nnn(-c2ccc(C(F)F)cc2)c1COc1ccc(N2CC(C(=O)NC3CCOCC3)C2)nn1` [Example 50, 1-(6-((1-(4-(Difluoromethyl)phenyl)-4-methyl-1H-1,2,3-triazol-5-yl)methoxy)pyridazin-3-yl)-N-(tetrahydro-2H-pyran-4-yl)azetidine-3-carboxamide] were 41.5% and 6.43 nM.
Taken in the same sequence, the figures for `COCCN1CCN(c2ccc(OCc3c(C)nnn3-c3ccc(C(F)F)cc3)nn2)CC1=O` [Example 139, 4-(6-((1-(4-(Difluoromethyl)phenyl)-4-methyl-1H-1,2,3-triazol-5-yl)methoxy)pyridazin-3-yl)-1-(2-methoxyethyl)piperazin-2-one] were 46.4% and 1.37 nM.
Taken in the same sequence, the figures for `Cc1nnn(-c2ccc(C(F)F)cc2)c1COc1ccc(N2CCN3CC(C(C)C)NC(=O)[C@@H]3C2)nn1` (stereo partly drawn) [Example 200, (9aS)-8-(6-((1-(4-(Difluoromethyl)phenyl)-4-methyl-1H-1,2,3-triazol-5-yl)methoxy)pyridazin-3-yl)-3-isopropylhexahydro-2H-pyrazino[1,2-a]pyrazin-1(6H)-one] were 60.1% and 1.9 nM.
Regarding `Cc1nnn(-c2ccc(C(F)F)cc2)c1COc1ccc(N2CCN3CC(C(C)(C)C)NC(=O)[C@@H]3C2)nn1` (single isomer, unassigned) [Example 201], in assay [1], the inhibition at 0.1 µM was determined as 53.9%. In assay [2] (read-out: α5-GABAAR Ki), the inhibitory constant (Ki) is 1.74 nM.
Taken in the same sequence, the figures for `Cc1nnn(-c2ccc(C(F)F)cc2)c1COc1ccc(N2CCN3CC(c4cnn(C)c4)NC(=O)[C@@H]3C2)nn1` (single isomer, unassigned) [Example 210] were 47.6% and 2.79 nM.
Taken in the same sequence, the figures for `Cc1nnn(-c2ccc(C(F)F)cc2)c1COc1ccc(N2CCN3CC(C4CC4)NC(=O)[C@@H]3C2)nn1` (single isomer, unassigned) [Example 203] were 50.8% and 1.99 nM.

As a reminder, the Ki is the dissociation constant of the complex between target and ligand, obtained from inhibition or displacement.
